Legend:
[1] = system: H3 histone acetylation in 697 cell line; experiment: In vitro H3 histone acetylation in 697 cell line; assay type: cell-based; conditions: 16 h, read-out: Acetylation of H3 histone (fold increase of acetylated H3/total H3 towards control); for fold induction at 0.111 µM: conc 111 nM; for fold induction at 0.333 µM: conc 333 nM; for fold induction at 1 µM: conc 1000 nM
Method: (§1) The in vitro α-tubulin and H3 histone acetylation determination was evaluated on B 697 […] cell line.
(§2) The test molecules were diluted from 20 mM stock solution in DMSO with RPMI 10% FCS+0.01% DMSO medium at 20× concentration compared to the final concentration, added to the cells (15×10^6 cells in a total volume of 30 ml in RPMI medium 10% FCS+0.01% DMSO) to obtain the final concentrations of 1000, 333, 111 and 37 nM and incubated at 37° C., 5% CO2 for 16 hours.
The remaining cells (10×10^6) were treated by acid extraction of histones (Kazuhiro et al., PNAS (2002), 99 (13) 8921-8926). Cells were centrifuged 5 min at 1100 rpm at 4° C. and washed once in 0.9% NaCl. The resulting pellet was lysed with […] (10 mM Tris.HCl, pH 6.5/50 mM sodium bisulphite, 1% Triton X-100/10 mM MgCl2/8.6% saccharose containing the protease inhibitor mixture (Roche)) for 20 min at 4° C. The resulting nucleus pellet was repeatedly washed in buffer until supernatant clarification (centrifuged at 7,500×g, 5 minutes after each wash) and finally washed in nucleus buffer (10 mM Tris.HCl/13 mm EDTA, pH 7, 4) and resuspended in 250 μl of 0.2 M HCl/H2SO4. Histone proteins were extracted in an acidic environment by incubating overnight at 4° C. under gentle shaking. After centrifugation at 14,000 rpm at 4° C. for 10 minutes, 1250 μl of cold acetone was added to the supernatant and incubated overnight at −20° C., resulting in the precipitation of histone proteins. The pellet obtained after centrifugation for 10 minutes at 14000 rpm and 4° C. was washed with cold acetone, evaporated to dryness and resuspended in 50 μl distilled water. The protein content determination of both total and histone extracts was carried out by a colorimetric assay using a BCA Protein Assay Kit (Pierce cat: 23227).
H3 histone acetylation and total H3 amount were quantified by commercial ELISA assays PathScan acetylated histone H3 Sandwich Elisa kit, cat #7232C and PathScan total histone H3 Sandwich Elisa Kit, cat #7253C Cell Signaling) according to supplier reported method and by detecting absorbance at 450 nm wavelength using Multiskan Spectrum. ELISA tests were performed by analysing 0.250 μg and 0.500 μg of histone extract of each sample. The degree of acetylation was calculated by dividing H3 histone absorbance by histone total absorbance.
(§3) Test results of tubulin and H3 histone acetylation, expressed as fold increase of ratio of acetylated α-tubulin/total α-tubulin and H3Ac/H3Tot, respectively, of each sample relative to the control sample (untreated) are summarized in Tables 6 and 6′.

[2] = system: α-tubulin acetylation in 697 cell line; experiment: In vitro α-tubulin acetylation in 697 cell line; assay type: cell-based; conditions: 16 hours, read-out: Tubulin acetylation (ratio of acetylated tubulin and total tubulin towards control); for fold induction at 0.037 µM: Conc 37 nM; for fold induction at 0.111 µM: Conc 111 nM; for fold induction at 0.333 µM: Conc 333 nM; for fold induction at 1 µM: Conc 1000 nM
Method: as §1, §2
At the end of the incubation period, 5×10^6 cells were taken from each sample, centrifuged for 5 minutes at 1100 rpm and washed in 0.9% NaCl at 4° C. The resulting pellet was lysed by treating at 4° C. for 30 minutes with 150 μl of Complete Lysis-M (Roche, cat-04719956051) containing protease inhibitors and phosphatase (Complete Easy Pack proteinase inhibitor cocktail tablets cat: 04693116001, Phostop easypack phosphatase inhibitor cocktails, cat: 01906837001—Roche), then centrifuged 10 minutes at 14,000 rpm (20817×g). 0.150 μg of supernatant (total protein extract) were diluted in 100 μl of 1×PBS and immobilized in Maxisorp F96 NUN-IMMUNO Plate (Nunc cat #5442404) at room temperature overnight. Plates were washed twice with Wash Buffer (PBS1X+0.005% tween 20) and saturated for 1 hour at room temperature with 300 μL of 1×PBS containing 10 FCS. After washing with buffer (1×PBS containing 0.005% tween), the plates were incubated for two hours at room temperature in the presence of anti-acetylated-α-tubulin antibody (Monoclonal Anti-acetylated-tubulin clone 6-11B-1, mouse ascites fluid, cat #T6793 Sigma, 100 μl diluted 1:1000 in 1×PBS containing 10% FCS) or with total anti-α-tubulin antibody (Monoclonal Anti alpha-tubulin produced in mouse, cat #T6074 Sigma). After washing, 100 μl per well of TMB substrate kit was added for 10 minutes at room temperature in the dark. The reaction was stopped by adding 50 μl of 2N H2SO4. The plates were read at Multiskan Spectrum spectrophotometer at a wavelength of 450 nm.
The degree of acetylation was calculated by dividing the absorbance obtained for acetylated α-tubulin by the absorbance of total α-tubulin.
as §3

[3] = Pharmacokinetics after single intravenous and oral administration to the mouse
Method: Plasma levels and main pharmacokinetic parameters of test compounds were evaluated after single intravenous and oral administration to the mouse.
The formulations were prepared in a mixture of DMSO/PEG400/H2O. Blood was collected at the following sampling times: 5, 10, 15, 30 minutes, 1, 2, 4 and 6 hours after administration. Plasma samples (100 μL) were deproteinized by addition of 1% formic acid in ACN, then vortex mixed and centrifuged. For each sample, an aliquot of the supernatant was collected and diluted with water, filtered with 0.45 μm regenerated cellulose filter and analysed by LC-MS/MS. Plasma levels of the test compounds were calculated on a calibration curve prepared in the range 0.5-200 ng/mL.
Pharmacokinetic parameters were calculated on the mean plasma concentration curve using the software Kinetica™ v.

[4] = system: PD-L1 expression in iDC (GMCSF-IL-4 stimulated monocytes); experiment: Inhibition of the expression of PD-L1 in in vitro derived dendritic cells; assay type: cell-based; conditions: human monocytes, GMCSF-IL-4, 5 days, FIG. 1
Method: FIG. 1: The inhibition of PD-L1 expression in iDC (GMCSF-IL-4 stimulated monocytes). Human monocytes were treated with HDAC6 inhibitors and stimulated with GMCSF-IL-4 for 5 days. After incubation, cells were collected and labelled with an anti PD-L1 antibody. Cells were then washed and fluorescence data were acquired using a flow cytometer (BD FACSVerse). Values on the graphs represent the mean of 3 experiment carried out on 3 different donors (n=3). The expression of PD-L1 is represented by the geometric mean of the fluorescence. *=P<0.05 determined by Student's t test.
To obtain in vitro derived DCs, human monocytes purified from PBMC, were treated for 5 days with GMCSF (50 ng/ml) and IL-4 (10 ng/ml) in the presence of two selective HDAC6 inhibitors described in this invention (compounds 10 and 19) and the HDAC inhibitor example 43 of WO 2012/106343. Control cells were treated with the inhibitor's vehicle. This procedure induces the formation of immature dendritic cells (iDCs) that express PD-L1 (Brown J A et al. J Immunol. 2003; 170:1257-66). After 5 days, iDCs were analyzed for the expression of the inhibitory marker […].

SMILES	fold induction at 0.111 µM [1]	fold induction at 0.333 µM [1]	fold induction at 1 µM [1]	fold induction at 0.037 µM [2]	fold induction at 0.111 µM [2]	fold induction at 0.333 µM [2]	fold induction at 1 µM [2]	further results
Cn1c(Sc2c(F)cc(C(=O)NO)cc2F)nnc1-c1cccc(CN2CCCCCC2)c1 [comp. 167, 4-[[5-[3-(azepan-1-ylmethyl)phenyl]-4-methyl-1,2,4-triazol-3-yl]sulfanyl]-3,5-difluoro-benzenecarbohydroxamic acid]	1	1	2	2	3	9	13	
Cn1c(Sc2c(F)cc(C(=O)NO)cc2F)nnc1-c1cccnn1 [comp. 179, 3,5-difluoro-4-[(4-methyl-5-pyridazin-3-yl-1,2,4-triazol-3-yl)sulfanyl]benzenecarbohydroxamic acid]			1	2	7	6	14	
O=C(NO)c1ccc(Cn2nnnc2-c2cccs2)cc1 [comp. 8, N-hydroxy-4-((5-(thiophen-2-yl)-1H-tetrazol-1-yl)methyl)benzamide]								AUCtot ([3]; Os, dose 5.2 mg/kg): 94 ng·h/mL; Cmax ([3]; Os, dose 5.2 mg/kg): 238 ng/mL; Tmax ([3]; Os, dose 5.2 mg/kg): 4.8 min; T1/2 ([3]; i.v., dose […]): 60 min; Vd ([3]; i.v., dose […]): 15.3 L/kg; bioavailability ([3]; plasma, po, 5.2 mg/kg): 18.5%
O=C(NO)c1cc(F)c(Cn2nnnc2-c2cccs2)c(F)c1 [comp. 15, 3,5-difluoro-N-hydroxy-4-((5-(thiophen-2-yl)-1H-tetrazol-1-yl)methyl)benzamide]	1	1	1	1	3	5	12	
Nc1ccc(-c2nnn(Cc3c(F)cc(C(=O)NO)cc3F)n2)cc1 [comp. 171, 4-[[5-(4-aminophenyl)tetrazol-2-yl]methyl]-3,5-difluoro-benzenecarbohydroxamic acid]			3	10	19	20	22	
O=C(NO)c1cc(F)c(Cn2nnc(-c3ccco3)n2)c(F)c1 [comp. 19, 3,5-difluoro-4-((5-(furan-2-yl)-2H-tetrazol-2-yl)methyl)-N-hydroxybenzamide]	1	2	2	7	15	21	17	PD-L1 expression in iDC [4]: reduced the PD-L1 expression in a statistically significant way
Cn1c(Sc2c(F)cc(C(=O)NO)cc2F)nnc1-c1ncccc1F [comp. 180, 3,5-difluoro-4-[[5-(3-fluoro-2-pyridyl)-4-methyl-1,2,4-triazol-3-yl]sulfanyl]benzenecarbohydroxamic acid]			1	2	7	15	19	
O=C(NO)c1cc(F)c(Cn2nnnc2-c2ncccn2)c(F)c1 [comp. 125, 3,5-difluoro-4-[(5-pyrimidin-2-yltetrazol-1-yl)methyl]benzenecarbohydroxamic acid]	1	1	1	1	3	6	14	
Cn1c(Sc2c(F)cc(C(=O)NO)cc2F)nnc1-c1ccc(CN2CCCCCC2)cc1 [comp. 168, 4-[[5-[4-(azepan-1-ylmethyl)phenyl]-4-methyl-1,2,4-triazol-3-yl]sulfanyl]-3,5-difluoro-benzenecarbohydroxamic acid]	1	1	2	3	11	19	16	
Cn1c(Sc2c(F)cc(C(=O)NO)cc2F)nnc1-c1cccs1 [comp. 17, 3,5-difluoro-N-hydroxy-4-((4-methyl-5-(thiophen-2-yl)-4H-1,2,4-triazol-3-yl)thio)benzamide]								AUC ([3]; plasma, iv, 1.3 mg/kg): 114 ng·h/mL; C0 ([3]; plasma, iv, 1.3 mg/kg): 727 ng/mL; Vd ([3]; plasma, iv, 1.3 mg/kg): 16.8 L/kg; clearance ([3]; plasma, iv, 1.3 mg/kg): 190 mL/min/kg; half-life ([3]; plasma, iv, 1.3 mg/kg): 60 min; Tmax ([3]; plasma, po, […]): 4.8 min; bioavailability ([3]; plasma, po, […]): 18.4%
O=C(NO)c1cc(F)c(Cc2nnc(-c3ccncc3)s2)c(F)c1 [compound 195, 3,5-difluoro-4-[[5-(4-pyridyl)-1,3,4-thiadiazol-2-yl]methyl]benzenecarbohydroxamic acid]	1	1	1	6	11	10	14	
Cn1c(Sc2ccc(C(=O)NO)cc2)nnc1-c1cccs1 [comp. 10, N-hydroxy-4-((4-methyl-5-(thiophen-2-yl)-4H-1,2,4-triazol-3-yl)thio)benzamide]								PD-L1 expression in iDC [4]: reduced the PD-L1 expression in a statistically significant way; AUCtot ([3]; Os, dose 5.2 mg/kg): 123 ng·h/mL; Cmax ([3]; Os, dose 5.2 mg/kg): 144 ng/mL; Tmax ([3]; Os, dose 5.2 mg/kg): 15 min; T1/2 ([3]; i.v., dose […]): 78 min; Vd ([3]; i.v., dose […]): 20.5 L/kg; bioavailability ([3]; in vivo, po, 5.2 mg/kg): 25.8%

Reference: patent publication US11351178B2, “Selective HDAC6 inhibitors” (ITALFARMACO S.P.A., priority 2017, dated 2022)
